# Data: US20250388553A1 (Incyte Corporation, priority 2018, published 2025)
# Counter-ions that a name gives are not always drawn. Like-named read-outs stand apart in the source and are kept apart here.
# Tests used:
# [1] = target: PI3Kγ (p110γ) Recombinant Human Protein (Homo sapiens (Human), UniProt P48736); test: PI3K-γ scintillation proximity assay; type: biochemical
# [2] = target: PI3Kδ (p1106/p85a) Recombinant Human Protein (Homo sapiens (Human), UniProt O00329); test: PI3Kδ scintillation proximity assay; type: biochemical
# [3] = Table A2, scintillation proximity assay, recombinant human p110γ
# [4] = Table A2, scintillation proximity assay, recombinant human PI3Kδ
# [5] = Table A3, scintillation proximity assay, recombinant human p110γ
# [6] = Table A3, scintillation proximity assay, recombinant human PI3Kδ
# [7] = Table A4, scintillation proximity assay, recombinant human p110γ
# [8] = Table A4, scintillation proximity assay, recombinant human PI3Kδ
# PI3Kδ (p1106/p85a) Recombinant Human Protein, sequence (O00329 whole entry): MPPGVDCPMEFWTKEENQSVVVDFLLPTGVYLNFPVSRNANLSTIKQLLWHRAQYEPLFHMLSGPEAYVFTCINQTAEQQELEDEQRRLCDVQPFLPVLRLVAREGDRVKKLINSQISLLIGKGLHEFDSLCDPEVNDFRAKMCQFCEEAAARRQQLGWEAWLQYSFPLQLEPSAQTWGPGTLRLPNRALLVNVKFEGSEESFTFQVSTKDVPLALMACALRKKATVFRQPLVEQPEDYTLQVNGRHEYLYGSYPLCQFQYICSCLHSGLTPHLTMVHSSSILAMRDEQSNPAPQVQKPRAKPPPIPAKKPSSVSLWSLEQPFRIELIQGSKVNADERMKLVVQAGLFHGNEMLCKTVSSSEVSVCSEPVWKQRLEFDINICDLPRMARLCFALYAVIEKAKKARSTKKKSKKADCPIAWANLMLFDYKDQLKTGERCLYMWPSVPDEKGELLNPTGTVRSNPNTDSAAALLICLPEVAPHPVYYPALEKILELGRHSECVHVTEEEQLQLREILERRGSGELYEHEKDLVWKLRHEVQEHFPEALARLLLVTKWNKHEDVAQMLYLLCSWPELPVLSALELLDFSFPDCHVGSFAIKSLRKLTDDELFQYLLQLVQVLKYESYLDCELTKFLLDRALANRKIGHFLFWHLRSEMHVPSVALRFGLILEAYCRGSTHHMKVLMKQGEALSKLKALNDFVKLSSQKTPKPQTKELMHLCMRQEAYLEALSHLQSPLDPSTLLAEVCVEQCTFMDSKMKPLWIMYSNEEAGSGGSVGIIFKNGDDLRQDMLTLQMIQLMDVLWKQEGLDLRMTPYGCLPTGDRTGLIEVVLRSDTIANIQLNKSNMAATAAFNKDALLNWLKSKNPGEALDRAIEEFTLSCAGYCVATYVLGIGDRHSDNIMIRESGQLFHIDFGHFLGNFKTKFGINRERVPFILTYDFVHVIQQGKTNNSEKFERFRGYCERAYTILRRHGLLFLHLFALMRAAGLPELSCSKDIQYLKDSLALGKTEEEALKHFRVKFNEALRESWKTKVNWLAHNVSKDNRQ
# PI3Kδ (p1106/p85a) Recombinant Human Protein, sequence (P27986 whole entry partner): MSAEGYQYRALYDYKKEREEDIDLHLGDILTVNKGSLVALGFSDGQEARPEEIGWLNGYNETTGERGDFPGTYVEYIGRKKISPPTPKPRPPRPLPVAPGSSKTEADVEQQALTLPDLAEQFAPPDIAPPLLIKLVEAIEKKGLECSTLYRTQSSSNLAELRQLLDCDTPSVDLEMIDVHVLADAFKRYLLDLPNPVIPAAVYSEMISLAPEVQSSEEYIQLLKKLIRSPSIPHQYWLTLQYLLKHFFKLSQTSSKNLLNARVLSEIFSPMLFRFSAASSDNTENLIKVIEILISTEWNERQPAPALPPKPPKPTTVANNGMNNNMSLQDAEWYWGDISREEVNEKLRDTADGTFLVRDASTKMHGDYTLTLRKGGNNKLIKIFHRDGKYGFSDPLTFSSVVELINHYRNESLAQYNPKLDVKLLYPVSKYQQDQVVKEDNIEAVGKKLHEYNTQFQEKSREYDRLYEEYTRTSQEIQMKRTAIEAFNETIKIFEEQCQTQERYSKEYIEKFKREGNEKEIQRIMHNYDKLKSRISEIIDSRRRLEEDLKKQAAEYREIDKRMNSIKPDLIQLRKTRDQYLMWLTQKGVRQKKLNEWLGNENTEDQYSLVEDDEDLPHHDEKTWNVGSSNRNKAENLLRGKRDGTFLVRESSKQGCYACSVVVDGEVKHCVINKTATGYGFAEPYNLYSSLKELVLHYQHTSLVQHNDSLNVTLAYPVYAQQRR
# PI3Kγ (p110γ) Recombinant Human Protein, sequence (P48736 whole entry): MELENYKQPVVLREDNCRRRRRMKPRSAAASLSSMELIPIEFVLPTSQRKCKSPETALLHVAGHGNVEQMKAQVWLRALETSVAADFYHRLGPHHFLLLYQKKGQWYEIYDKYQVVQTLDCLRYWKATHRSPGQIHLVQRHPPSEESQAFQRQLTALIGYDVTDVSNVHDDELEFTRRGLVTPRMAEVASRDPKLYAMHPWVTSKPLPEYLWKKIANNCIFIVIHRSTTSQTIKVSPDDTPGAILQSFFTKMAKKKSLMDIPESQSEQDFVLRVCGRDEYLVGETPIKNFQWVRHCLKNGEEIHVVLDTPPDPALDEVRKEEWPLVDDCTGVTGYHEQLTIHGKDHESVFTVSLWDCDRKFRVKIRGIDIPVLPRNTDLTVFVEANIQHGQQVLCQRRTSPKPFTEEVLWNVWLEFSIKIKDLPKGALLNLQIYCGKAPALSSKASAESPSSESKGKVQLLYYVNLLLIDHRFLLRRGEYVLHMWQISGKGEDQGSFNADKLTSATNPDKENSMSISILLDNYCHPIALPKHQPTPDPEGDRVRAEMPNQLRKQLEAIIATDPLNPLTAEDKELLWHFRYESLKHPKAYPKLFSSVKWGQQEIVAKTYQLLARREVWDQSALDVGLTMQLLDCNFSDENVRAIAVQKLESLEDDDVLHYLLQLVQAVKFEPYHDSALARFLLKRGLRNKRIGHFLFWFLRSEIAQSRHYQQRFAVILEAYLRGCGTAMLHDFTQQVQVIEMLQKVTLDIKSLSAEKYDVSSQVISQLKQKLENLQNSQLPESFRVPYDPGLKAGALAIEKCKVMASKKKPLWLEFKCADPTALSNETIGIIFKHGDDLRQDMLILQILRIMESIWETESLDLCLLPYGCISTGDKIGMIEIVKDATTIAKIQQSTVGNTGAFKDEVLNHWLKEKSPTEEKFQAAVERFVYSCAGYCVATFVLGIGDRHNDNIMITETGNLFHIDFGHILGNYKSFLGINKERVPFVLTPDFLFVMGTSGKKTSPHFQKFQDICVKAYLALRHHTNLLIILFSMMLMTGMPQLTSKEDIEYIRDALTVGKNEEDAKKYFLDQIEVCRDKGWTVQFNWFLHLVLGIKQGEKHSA
SMILES,"IC50 [1, 5]","IC50 [2, 6]","IC50 [1, 7]","IC50 [2, 8]",other results
"Cc1ccc(C(O)(C(N)=O)C(F)(F)F)cc1-c1cnc(N)c(C#CC2(O)CCN(C)C2=O)n1 (stereo not drawn) [Example 65, 2-(3-(5-amino-6-((3-hydroxy-1-methyl-2-oxopyrrolidin-3-yl)ethynyl)pyrazin-2-yl)-4-methylphenyl)-3,3,3-trifluoro-2-]",–,–,–,–,"IC50 [1, 3]: < 100 nM; IC50 [2, 4]: < 100 nM"
"Cc1cnc(C#Cc2nc(-c3cc(C(O)(C(N)=O)C(F)(F)F)ccc3C)cnc2N)cn1 (stereo not drawn) [Example 66, 2-(3-(5-amino-6-((5-methylpyrazin-2-yl)ethynyl)pyrazin-2-yl)-4-methylphenyl)-3,3,3-trifluoro-2-hydroxypropanamide]",–,–,–,–,"IC50 [1, 3]: < 100 nM; IC50 [2, 4]: < 100 nM"
"COc1cnc(C#Cc2nc(-c3cc(C(O)(C(N)=O)C(F)(F)F)ccc3C)cnc2N)cn1 (stereo not drawn) [Example 67, 2-(3-(5-amino-6-((5-methoxypyrazin-2-yl)ethynyl)pyrazin-2-yl)-4-methylphenyl)-3,3,3-trifluoro-2-hydroxypropanamide]",–,–,–,–,"IC50 [1, 3]: < 100 nM; IC50 [2, 4]: < 100 nM"
"Cc1ccc(C(O)(C(N)=O)C(F)(F)F)cc1-c1cnc(N)c(C#Cc2cn3ccnc3cn2)n1 (stereo not drawn) [Example 68, 2-(3-(5-amino-6-(imidazo[1,2-a]pyrazin-6-ylethynyl)pyrazin-2-yl)-4-methylphenyl)-3,3,3-trifluoro-2-hydroxypropanamide]",–,–,–,–,"IC50 [1, 3]: < 100 nM; IC50 [2, 4]: < 100 nM"
"Cc1ncc(-c2nc(-c3cc(C(O)(C(N)=O)C(F)F)ccc3C)cnc2N)o1 (stereo not drawn) [Example 100, 2-(3-(5-amino-6-(2-methyloxazol-5-yl)pyrazin-2-yl)-4-methylphenyl)-3,3-difluoro-2-hydroxypropanamide]",< 100 nM,< 100 nM,–,–,–
"Cc1ccc(C(O)(CNC=O)C(F)(F)F)cc1-c1cnc(N)c(-c2cnc(C3CC3)s2)n1 (stereo not drawn) [Example 102, N-(2-(3-(5-amino-6-(2-cyclopropylthiazol-5-yl)pyrazin-2-yl)-4-methylphenyl)-3,3,3-trifluoro-2-hydroxypropyl)formamide trifluoroacetate]",< 100 nM,< 100 nM,–,–,–
"CC(=O)NCC(O)(c1ccc(C)c(-c2cnc(N)c(-c3cnn(CC(F)(F)F)c3)n2)c1)C(F)(F)F (stereo not drawn) [Example 104, N-(2-(3-(5-amino-6-(1-(2,2,2-trifluoroethyl)-1H-pyrazol-4-yl)pyrazin-2-yl)-4-methylphenyl)-3,3,3-trifluoro-2-hydroxypropyl)acetamide trifluoroacetate]",< 100 nM,< 100 nM,–,–,–
"CC(=O)N1CCN(c2nc(-c3cc(C(O)(C(N)=O)C(F)(F)F)ccc3C)cnc2N)CC1 (stereo not drawn) [Example 114, 2-(3-(6-(4-acetylpiperazin-1-yl)-5-aminopyrazin-2-yl)-4-methylphenyl)-3,3,3-trifluoro-2-hydroxypropanamide trifluoroacetate]",–,–,< 100 nM,< 100 nM,–
"Cc1ccc([C@@](O)(C(N)=O)C(F)(F)F)cc1-c1cnc(N)c(N2CCN(C(=O)C3CC3)CC2)n1 [Example 115, (R)-2-(3-(5-amino-6-(4-(cyclopropanecarbonyl)piperazin-1-yl)pyrazin-2-yl)-4-methylphenyl)-3,3,3-trifluoro-2-hydroxypropanamide trifluoroacetate]",–,–,< 100 nM,< 100 nM,–
"Cc1ccc(C(O)(C(N)=O)C(F)(F)F)cc1-c1cnc(N)c(N2CCN(c3ccccc3)CC2)n1 (stereo not drawn) [Example 116, 2-(3-(5-amino-6-(4-phenylpiperazin-1-yl)pyrazin-2-yl)-4-methylphenyl)-3,3,3-trifluoro-2-hydroxypropanamide trifluoroacetate]",–,–,< 100 nM,100 to 500 nM,–
"Cc1ccc(C(O)(C(N)=O)C(F)(F)F)cc1-c1cnc(N)c(N2CCN(c3ccccn3)CC2)n1 (stereo not drawn) [Example 117, 2-(3-(5-amino-6-(4-(pyridin-2-yl)piperazin-1-yl)pyrazin-2-yl)-4-methylphenyl)-3,3,3-trifluoro-2-hydroxypropanamide trifluoroacetate]",–,–,–,–,IC50 [1]: < 100 nM; IC50 [2]: < 100 nM
"Cc1ccc(C)c(N2CCN(c3nc(-c4cc(C(O)(C(N)=O)C(F)(F)F)ccc4C)cnc3N)CC2)c1 (stereo not drawn) [Example 119, 2-(3-(5-amino-6-(4-(2,5-dimethylphenyl)piperazin-1-yl)pyrazin-2-yl)-4-methylphenyl)-3,3,3-trifluoro-2-hydroxypropanamide trifluoroacetate]",–,–,< 100 nM,100 to 500 nM,–
"Cc1ccc(C(O)(C(N)=O)C(F)(F)F)cc1-c1cnc(N)c(N2CCN(c3cccc(C(F)(F)F)c3)CC2)n1 (stereo not drawn) [Example 121, 2-(3-(5-amino-6-(4-(3-(trifluoromethyl)phenyl)piperazin-1-yl)pyrazin-2-yl)-4-methylphenyl)-3,3,3-trifluoro-2-hydroxypropanamide trifluoroacetate]",–,–,< 100 nM,100 to 500 nM,–
"Cc1ccc(C(O)(C(N)=O)C(F)(F)F)cc1-c1cnc(N)c(N2CCN(c3ccccc3C#N)CC2)n1 (stereo not drawn) [Example 122, 2-(3-(5-amino-6-(4-(2-cyanophcnyl)piperazin-1-yl)pyrazin-2-yl)-4-methylphenyl)-3,3,3-trifluoro-2-hydroxypropanamide trifluoroacetate]",–,–,< 100 nM,< 100 nM,–
"Cc1ccc(C(O)(C(N)=O)C(F)(F)F)cc1-c1cnc(N)c(N2CCN3C(=O)CCC3C2)n1 (stereo not drawn) [Example 126, 2-(3-(5-amino-6-(6-oxohexahydropyrrolo[1,2-a]pyrazin-2(1H)-yl)pyrazin-2-yl)-4-methylphenyl)-3,3,3-trifluoro-2-hydroxypropanamide trifluoroacetate]",–,–,< 100 nM,< 100 nM,–
"Cc1ccc(C(O)(C(N)=O)C(F)(F)F)cc1-c1cnc(N)c(N2CCN(C(=O)c3ccco3)CC2)n1 (stereo not drawn) [Example 127, 2-(3-(5-amino-6-(4-(furan-2-carbonyl)piperazin-1-yl)pyrazin-2-yl)-4-methylphenyl)-3,3,3-trifluoro-2-hydroxypropanamide trifluoroacetate]",–,–,–,–,IC50 [1]: < 100 nM; IC50 [2]: < 100 nM
"Cc1ccc(C(O)(C(N)=O)C(F)(F)F)cc1-c1cnc(N)c(N2CCN(c3nccnc3C#N)CC2)n1 (stereo not drawn) [Example 128, 2-(3-(5-amino-6-(4-(3-cyanopyrazin-2-yl)piperazin-1-yl)pyrazin-2-yl)-4-methylphenyl)-3,3,3-trifluoro-2-hydroxypropanamide trifluoroacetate]",–,–,< 100 nM,< 100 nM,–

# More lines, main results first:
"IC50 [1, 5]","IC50 [2, 6]","IC50 [1, 7]","IC50 [2, 8]",SMILES,other results
< 100 nM,< 100 nM,–,–,"Cc1ccc(C(O)(C(N)=O)C(F)(F)F)cc1-c1cnc(N)c(-c2ccnn2C)n1 (stereo not drawn) [Example 69, 2-(3-(5-Amino-6-(1-methyl-1H-pyrazol-5-yl)pyrazin-2-yl)-4-methylphenyl)-3,3,3-trifluoro-2-hydroxypropanamide trifluoroacetate]",–
< 100 nM,< 100 nM,–,–,"Cc1ccc(C(O)(C(N)=O)C(F)(F)F)cc1-c1cnc(N)c(-n2cccn2)n1 (stereo not drawn) [Example 93, 2-(3-(5-Amino-6-(1H-pyrazol-1-yl)pyrazin-2-yl)-4-methylphenyl)-3,3,3-trifluoro-2-hydroxypropanamide]",–
< 100 nM,< 100 nM,–,–,"CNC(=O)C(O)(c1ccc(C)c(-c2cnc(N)c(-n3cncn3)n2)c1)C(F)(F)F (stereo not drawn) [Example 94, 2-(3-(5-Amino-6-(1H-1,2,4-triazol-1-yl)pyrazin-2-yl)-4-methylphenyl)-3,3,3-trifluoro-2-hydroxy-N-methylpropanamide trifluoroacetate]",–
100 to 500 nM,100 to 500 nM,–,–,"Cc1ccc(C(O)(C(=O)N(C)C)C(F)(F)F)cc1-c1cnc(N)c(-n2cncn2)n1 (stereo not drawn) [Example 95, 2-(3-(5-Amino-6-(1H-1,2,4-triazol-1-yl)pyrazin-2-yl)-4-methylphenyl)-3,3,3-trifluoro-2-hydroxy-N,N-dimethylpropanamide trifluoroacetate]",–
< 100 nM,100 to 500 nM,–,–,"CNC(=O)C(O)(c1ccc(C)c(-c2cnc(N)c(-c3cnn(C)c3)n2)c1)C(F)(F)F (stereo not drawn) [Example 96, 2-(3-(5-Amino-6-(1-methyl-1H-pyrazol-4-yl)pyrazin-2-yl)-4-methylphenyl)-3,3,3-trifluoro-2-hydroxy-N-methylpropanamide]",–
< 100 nM,< 100 nM,–,–,"Cc1ccc(C(O)(C(N)=O)C(F)F)cc1-c1cnc(N)c(-c2ccnn2C)n1 (stereo not drawn) [Example 98, 2-(3-(5-Amino-6-(1-methyl-1H-pyrazol-5-yl)pyrazin-2-yl)-4-methylphenyl)-3,3-difluoro-2-hydroxypropanamide]",–
< 100 nM,< 100 nM,–,–,"Cc1ccc(C(O)(C(N)=O)C(F)F)cc1-c1cnc(N)c(-c2cnn(C)n2)n1 (stereo not drawn) [Example 101, 2-(3-(5-amino-6-(2-methyl-2H-1,2,3-triazol-4-yl)pyrazin-2-yl)-4-methylphenyl)-3,3-difluoro-2-hydroxypropanamide]",–
< 100 nM,< 100 nM,–,–,"CC(=O)NCC(O)(c1ccc(C)c(-c2cnc(N)c(-c3cn[nH]c3)n2)c1)C(F)(F)F (stereo not drawn) [Example 105, N-(2-(3-(5-amino-6-(1H-pyrazol-4-yl)pyrazin-2-yl)-4-methylphenyl)-3,3,3-trifluoro-2-hydroxypropyl)acetamide trifluoroacetate]",–
< 100 nM,< 100 nM,–,–,"Cc1ccc(C(O)(C(N)=O)C(F)(F)F)cc1-c1cnc(N)c(C(=O)Nc2ccnn2C)n1 (stereo not drawn) [Example 106, 3-amino-6-(5-(3-amino-1,1,1-trifluoro-2-hydroxy-3-oxopropan-2-yl)-2-methylphenyl)-N-(1-methyl-1H-pyrazol-5-yl)pyrazine-2-carboxamide trifluoroacetate]",–
–,–,< 100 nM,< 100 nM,"Cc1ccc(C(O)(C(N)=O)C(F)(F)F)cc1-c1cnc(N)c(N2CCN(c3cncs3)CC2)n1 (stereo not drawn) [Example 120, 2-(3-(5-amino-6-(4-(thiazol-5-yl)piperazin-1-yl)pyrazin-2-yl)-4-methylphenyl)-3,3,3-trifluoro-2-hydroxypropanamide trifluoroacetate]",–
